# ChEMBL document CHEMBL5137024, “Discovery of novel coumarin-indole derivatives as tubulin polymerization inhibitors with potent anti-gastric cancer activities” (Eur J Med Chem, 2022)
# The source made the active and inactive calls. The calls are words filed in the database; no cut-off is given here.
# Legend:
# CWR22R = experiment: Antiproliferative activity against human 22Rv1 cells assessed as reduction in cell viability incubated for 48 hrs by MTT assay; type: functional, cell-based; conditions: 22Rv1, 48 h
# DU-145 = experiment: Antiproliferative activity against human DU-145 cells assessed as reduction in cell viability incubated for 48 hrs by MTT assay; type: functional, cell-based; conditions: DU-145, 48 h
# SH-SY5Y = experiment: Antiproliferative activity against human SH-SY5Y cells assessed as reduction in cell viability incubated for 48 hrs by MTT assay; type: functional, cell-based
# [1] = Cytotoxicity against human GES1 cells assessed as reduction in cell viability incubated for 48 hrs by MTT assay; type: toxicity, cell-based
# HGC-27 [2] = experiment: Antiproliferative activity against human HGC-27 cells assessed as reduction in cell viability at 15 to 30 nM by MTT assay; type: functional, cell-based; conditions: dose 15-30 nM, time 12-48 hrs, TDE = time-dependent effect
# Tubulin (Homo sapiens) [3] = molecular target: T1, Tubulin (Homo sapiens) (UniProt P68371+Q9H4B7+P0DPH7+P68366+Q13509+Q71U36+P04350+Q3ZCM7+P07437+P68363+Q9BQE3+Q6PEY2+Q13885+Q9BVA1+Q9BUF5); experiment: Disruption of microtubule network in human MGC-803 cells assessed as incomplete mitosis at 5 to 15 nM measured after 48 hrs by DAPI staining based fluorescence microscopic analysis; type: cell-based; conditions: dose 5-15 nM
# Tubulin (Homo sapiens) [4] = molecular target: T1, Tubulin (Homo sapiens); experiment: Disruption of microtubule network in human MGC-803 cells assessed as cytoskeleton disruption at 5 to 15 nM measured after 48 hrs by DAPI staining based fluorescence microscopic analysis; type: cell-based; conditions: dose 5-15 nM
# [5] = molecular target: Tubulin beta (Homo sapiens) (UniProt P68371+Q9H4B7+Q13509+P04350+Q3ZCM7+P07437+Q13885+Q9BVA1+Q9BUF5+A6NNZ2); experiment: Binding affinity to beta-tubulin colchicine binding site in human MGC-803 cells assessed as decrease in beta-tubulin adduct band incubated for 2 hrs by EBI alkylate competition assay; type: cell-based; conditions: dose 0.075-0.75 µM, DDE = dose-dependent effect
# MGC-803 [6] = experiment: Inhibition of ERK signalling pathway in human MGC-803 cells assessed as downregulation of MEK1/2 phosphorylation at 5 to 15 nM incubated for 48 hrs; type: cell-based; conditions: dose 5-15 nM
# MGC-803 [7] = experiment: Inhibition of ERK signalling pathway in human MGC-803 cells assessed as downregulation of ERK1/2 phosphorylation at 5 to 15 nM incubated for 48 hrs; type: cell-based; conditions: dose 5-15 nM
# HGC-27 [8] = experiment: Inhibition of ERK signalling pathway in human HGC-27 cells assessed as downregulation of c-Raf phosphorylation at 10 to 30 nM incubated for 48 hrs; type: cell-based; conditions: dose 10-30 nM
# HGC-27 [9] = experiment: Inhibition of ERK signalling pathway in human HGC-27 cells assessed as reduction in downstream substrate MSK1 phosphorylation at 10 to 30 nM incubated for 48 hrs; type: cell-based; conditions: dose 10-30 nM
# HGC-27 [10] = experiment: Inhibition of p38 signalling pathway in human HGC-27 cells assessed as reduction in MKK3/6 phosphorylation at 10 to 30 nM incubated for 48 hrs; type: cell-based; conditions: dose 10-30 nM
# MGC-803 [11] = experiment: Downregulation of phosphorylated Elk-1 expression in human MGC-803 cells incubated for 48 hrs; type: functional, cell-based; conditions: dose 5-15 nM, DDE = dose-dependent effect
# HGC-27 [12] = experiment: Downregulation of FoxO3a expression in human HGC-27 cells incubated for 48 hrs; type: functional, cell-based; conditions: dose 10-30 nM, DDE = dose-dependent effect
# HGC-27 [13] = experiment: Downregulation of phosphorylated ATF-2 expression in human HGC-27 cells incubated for 48 hrs; type: functional, cell-based; conditions: dose 10-30 nM, DDE = dose-dependent effect
# [14] = Induction of mitochondria mediated intrinsic apoptosis in human MGC-803 cells assessed as early apoptotic cells at 5 nM measured after 48 hrs by flow cytometry analysis (Rvb= 1.6%); type: functional
# [15] = Induction of mitochondria mediated intrinsic apoptosis in human MGC-803 cells assessed as late apoptotic cells at 5 nM measured after 48 hrs by flow cytometry analysis (Rvb= […]); type: functional
# [16] = Induction of mitochondria mediated intrinsic apoptosis in human MGC-803 cells assessed as early apoptotic cells at 10 nM measured after 48 hrs by flow cytometry analysis (Rvb= 1.6%); type: functional
# [17] = Induction of mitochondria mediated intrinsic apoptosis in human MGC-803 cells assessed as early apoptotic cells at 15 nM measured after 48 hrs by flow cytometry analysis (Rvb= 1.6%); type: functional
# [18] = Induction of mitochondria mediated intrinsic apoptosis in human HGC-27 cells assessed as early apoptotic cells at 10 nM measured after 48 hrs by flow cytometry analysis (Rvb= 6.4%); type: functional
# [19] = Induction of mitochondria mediated intrinsic apoptosis in human HGC-27 cells assessed as late apoptotic cells at 20 nM measured after 48 hrs by flow cytometry analysis (reference value: 93.6%); type: functional
# [20] = Induction of mitochondria mediated intrinsic apoptosis in human HGC-27 cells assessed as early apoptotic cells at 30 nM measured after 48 hrs by flow cytometry analysis (Rvb= 6.4%); type: functional
# HGC-27 [21] = experiment: Induction of apoptosis in human HGC-27 cells assessed as increase in dead cells at 10 to 30 nM incubated for 48 hrs by calcein-AM dye/propidium iodide staining based analysis; type: functional, cell-based; conditions: dose 10-30 nM
# MGC-803 [22] = experiment: Induction of apoptosis in human MGC-803 cells assessed as decrease in Mcl-1 level; type: functional, cell-based; conditions: dose 5-15 nM, DDE = dose-dependent effect
# HGC-27 [23] = experiment: Induction of apoptosis in human HGC-27 cells assessed as decrease in Mcl-1 level; type: functional, cell-based; conditions: dose 10-30 nM, DDE = dose-dependent effect
# HGC-27 [24] = experiment: Induction of apoptosis in human HGC-27 cells assessed as upregulation of DR5 level; type: functional, cell-based; conditions: dose 10-30 nM, DDE = dose-dependent effect
# HGC-27 [25] = experiment: Antiproliferative activity against human HGC-27 cells assessed as inhibition of cell growth at 10 to 30 nM incubated for 60 hrs; type: functional, cell-based; conditions: dose 10-30 nM
# HGC-27 [26] = experiment: Inhibition of colony formation in human HGC-27 cells incubated for 7 days by crystal violet staining based analysis; type: functional, cell-based; conditions: dose 3-15 nM, time 7.0 day, DDE = dose-dependent effect
# MGC-803 [27] = experiment: Induction of cell cycle arrest in human MGC-803 cells assessed as accumulation of cells at G2/M phase at 15 nM incubated for 48 hrs by propidium iodide staining based flow cytometry analysis (reference value: 24%); type: functional
# HGC-27 [28] = experiment: Antiinvasive activity against human HGC-27 cells assessed as reduction in number of cells in membrane incubated for 48 hrs by trans well assay; type: functional, cell-based; conditions: dose 10-30 nM, DDE = dose-dependent effect
# HGC-27 [29] = experiment: Downregulation of MMP-9 expression in human HGC-27 cells incubated for 48 hrs; type: functional, cell-based; conditions: dose 10-30 nM, DDE = dose-dependent effect
# MGC-803 [30] = experiment: Antitumor activity against human MGC-803 cells xenografted BALB/c nude mouse assessed as tumor growth inhibition at 30 mg/kg, ip administered once daily for 21 days; type: functional; conditions: MGC-803, 504 h, time 21 day, read-out: TGI
# [31] = Toxicity in BALB/c nude mouse xenografted with human MGC-803 cells assessed as pathological changes in spleen at 15 to 30 mg/kg, ip administered once daily for 21 days by Hematoxyin-eosin staining based analysis; type: organism-based; conditions: in vivo, 504 h, dose 15-30 mg/kg, time 21 day
# Mus musculus = experiment: Downregulation of Ki67 expression in tumor tissue of BALB/c nude mouse xenografted with human MGC-803 cells at 15 to 30 mg/kg, ip administered once daily for 21 days by immunohistochemistry analysis; type: functional, organism-based; conditions: dose 15-30 mg/kg, time 21.0 day
smiles,measurement,setting,value
CN(c1ccc2c(ccn2C)c1)c1cc(=O)oc2ccccc12,IC50,CWR22R,0.558 µM
same,IC50,DU-145,0.074 µM
same,IC50,SH-SY5Y,0.0194 µM
same,IC50 at 48 h,[1],3.17 µM
same,Activity,HGC-27 [2],Tde
same,Activity,Tubulin (Homo sapiens) [3],Active
same,Activity,Tubulin (Homo sapiens) [4],Active
same,Activity,[5],Dde
same,inhibition,MGC-803 [6],Active
same,inhibition,MGC-803 [7],Active
same,inhibition,HGC-27 [8],Active
same,inhibition,HGC-27 [9],Active
same,inhibition,HGC-27 [10],Active
same,Activity,MGC-803 [11],Dde
same,Activity,HGC-27 [12],Dde
same,Activity,HGC-27 [13],Dde
same,Activity,[14],1.8%
same,Activity,[15],98.1%
same,Activity,[16],7.2%
same,Activity,[17],23.6%
same,Activity,[18],8.3%
same,Activity,[19],78.3%
same,Activity,[20],25.5%
same,Activity,HGC-27 [21],Active
same,Activity,MGC-803 [22],Dde
same,Activity,HGC-27 [23],Dde
same,Activity,HGC-27 [24],Dde
same,inhibition,HGC-27 [25],Active
same,inhibition,HGC-27 [26],Dde
same,Activity,MGC-803 [27],53%
same,Activity,HGC-27 [28],Dde
same,Activity,HGC-27 [29],Dde
same,inhibition in vivo at 30 mg/kg,MGC-803 [30],80%
same,Activity,[31],Non-Toxic
same,Activity,Mus musculus,Active
